The compounds below were run on MCH receptors (assay: MCH receptor activity class (method not given)). Settings: MCH receptor; class by percent of control at 10^-7 M or IC50.

Row | SMILES | class
1 | CN(C)c1nc(N[C@H]2CC[C@@H](NC(=S)NCCc3ccc(Cl)cc3)CC2)nc2c1CCCC2 [compound 1998] | 3 (Class 3 The value of percent of control at 10^−7 M was more than 60% or the value of IC50 was more than 200 nM.)
2 | CN(C)c1nc(N[C@H]2CC[C@@H](NC(=S)Nc3cc(Cl)c(Cl)c(Cl)c3Cl)CC2)nc2c1CCCC2 [compound 1999] | 3 (Class 3 The value of percent of control at 10^−7 M was more than 60% or the value of IC50 was more than 200 nM.)
3 | CN(C)c1nc(N[C@H]2CC[C@@H](NC(=S)Nc3cc(Cl)c(Cl)cc3Cl)CC2)nc2c1CCCC2 [compound 2000] | 3 (Class 3 The value of percent of control at 10^−7 M was more than 60% or the value of IC50 was more than 200 nM.)
4 | CN(C)c1nc(N[C@H]2CC[C@@H](NC(=S)Nc3c(F)cc(F)cc3F)CC2)nc2c1CCCC2 [compound 2001] | 3 (Class 3 The value of percent of control at 10^−7 M was more than 60% or the value of IC50 was more than 200 nM.)
5 | CC(C)c1cccc(C(C)C)c1NC(=S)N[C@H]1CC[C@@H](Nc2nc3c(c(N(C)C)n2)CCCC3)CC1 [compound 2002] | 3 (Class 3 The value of percent of control at 10^−7 M was more than 60% or the value of IC50 was more than 200 nM.)
6 | CN(C)c1nc(N[C@H]2CC[C@@H](NC(=S)Nc3cc(C(F)(F)F)ccc3Cl)CC2)nc2c1CCCC2 [compound 2003] | 3 (Class 3 The value of percent of control at 10^−7 M was more than 60% or the value of IC50 was more than 200 nM.)
7 | CSc1cccc(NC(=S)N[C@H]2CC[C@@H](Nc3nc4c(c(N(C)C)n3)CCCC4)CC2)c1 [compound 2004] | 3 (Class 3 The value of percent of control at 10^−7 M was more than 60% or the value of IC50 was more than 200 nM.)
8 | CN(C)c1nc(N[C@H]2CC[C@@H](NC(=S)NCc3ccc(Cl)c(Cl)c3)CC2)nc2c1CCCC2 [compound 2005] | 3 (Class 3 The value of percent of control at 10^−7 M was more than 60% or the value of IC50 was more than 200 nM.)
9 | COc1cc(NC(=S)N[C@H]2CC[C@@H](Nc3nc4c(c(N(C)C)n3)CCCC4)CC2)cc(OC)c1 [compound 2006] | 3 (Class 3 The value of percent of control at 10^−7 M was more than 60% or the value of IC50 was more than 200 nM.)
10 | Cc1cc(C)cc(NC(=S)N[C@H]2CC[C@@H](Nc3nc4c(c(N(C)C)n3)CCCC4)CC2)c1 [compound 2007] | 3 (Class 3 The value of percent of control at 10^−7 M was more than 60% or the value of IC50 was more than 200 nM.)
11 | CN(C)c1nc(N[C@H]2CC[C@@H](NC(=S)Nc3cccc(OCc4ccccc4)c3)CC2)nc2c1CCCC2 [compound 2008] | 3 (Class 3 The value of percent of control at 10^−7 M was more than 60% or the value of IC50 was more than 200 nM.)
12 | CN(C)c1nc(N[C@H]2CC[C@@H](NC(=S)Nc3cccc(C(=O)O)c3)CC2)nc2c1CCCC2 [compound 2009] | 3 (Class 3 The value of percent of control at 10^−7 M was more than 60% or the value of IC50 was more than 200 nM.)
13 | Cc1ccc(NC(=S)N[C@H]2CC[C@@H](Nc3nc4c(c(N(C)C)n3)CCCC4)CC2)cc1Cl [compound 2010] | 3 (Class 3 The value of percent of control at 10^−7 M was more than 60% or the value of IC50 was more than 200 nM.)
14 | CN(C)c1nc(N[C@H]2CC[C@@H](NC(=S)NCCCc3ccccc3)CC2)nc2c1CCCC2 [compound 2011] | 3 (Class 3 The value of percent of control at 10^−7 M was more than 60% or the value of IC50 was more than 200 nM.)
15 | CCN(CC)c1ccc(NC(=S)N[C@H]2CC[C@@H](Nc3nc4c(c(N(C)C)n3)CCCC4)CC2)cc1 [compound 2012] | 3 (Class 3 The value of percent of control at 10^−7 M was more than 60% or the value of IC50 was more than 200 nM.)
16 | CCOC(=O)c1ccc(NC(=S)N[C@H]2CC[C@@H](Nc3nc4c(c(N(C)C)n3)CCCC4)CC2)cc1 [compound 2013] | 3 (Class 3 The value of percent of control at 10^−7 M was more than 60% or the value of IC50 was more than 200 nM.)
17 | CN(C)c1nc(N[C@H]2CC[C@@H](NC(=S)NCc3ccc(F)cc3)CC2)nc2c1CCCC2 [compound 2015] | 3 (Class 3 The value of percent of control at 10^−7 M was more than 60% or the value of IC50 was more than 200 nM.)
18 | CC(C)c1ccc(NC(=S)N[C@H]2CC[C@@H](Nc3nc4c(c(N(C)C)n3)CCCC4)CC2)cc1 [compound 2016] | 3 (Class 3 The value of percent of control at 10^−7 M was more than 60% or the value of IC50 was more than 200 nM.)
19 | COc1ccc(NC(=S)N[C@H]2CC[C@@H](Nc3nc4c(c(N(C)C)n3)CCCC4)CC2)c([N+](=O)[O-])c1 [compound 2017] | 3 (Class 3 The value of percent of control at 10^−7 M was more than 60% or the value of IC50 was more than 200 nM.)
20 | COc1ccc(CNC(=S)N[C@H]2CC[C@@H](Nc3nc4c(c(N(C)C)n3)CCCC4)CC2)cc1 [compound 2018] | 3 (Class 3 The value of percent of control at 10^−7 M was more than 60% or the value of IC50 was more than 200 nM.)
21 | COC(=O)c1ccc(NC(=S)N[C@H]2CC[C@@H](Nc3nc4c(c(N(C)C)n3)CCCC4)CC2)cc1 [compound 2019] | 3 (Class 3 The value of percent of control at 10^−7 M was more than 60% or the value of IC50 was more than 200 nM.)

Row | SMILES | class
22 | Cc1ccc(NC(=S)N[C@H]2CC[C@@H](Nc3nc4c(c(N(C)C)n3)CCCC4)CC2)c([N+](=O)[O-])c1 [compound 2020] | 3 (Class 3 The value of percent of control at 10^−7 M was more than 60% or the value of IC50 was more than 200 nM.)
23 | Cc1ccc(CNC(=S)N[C@H]2CC[C@@H](Nc3nc4c(c(N(C)C)n3)CCCC4)CC2)cc1 [compound 2021] | 3 (Class 3 The value of percent of control at 10^−7 M was more than 60% or the value of IC50 was more than 200 nM.)
24 | CCCCc1ccc(NC(=S)N[C@H]2CC[C@@H](Nc3nc4c(c(N(C)C)n3)CCCC4)CC2)cc1 [compound 2022] | 3 (Class 3 The value of percent of control at 10^−7 M was more than 60% or the value of IC50 was more than 200 nM.)
25 | COc1ccc(Cl)cc1NC(=S)N[C@H]1CC[C@@H](Nc2nc3c(c(N(C)C)n2)CCCC3)CC1 [compound 2023] | 3 (Class 3 The value of percent of control at 10^−7 M was more than 60% or the value of IC50 was more than 200 nM.)
26 | CN(C)c1nc(N[C@H]2CC[C@@H](NC(=S)NC(c3ccccc3)c3ccccc3)CC2)nc2c1CCCC2 [compound 2025] | 3 (Class 3 The value of percent of control at 10^−7 M was more than 60% or the value of IC50 was more than 200 nM.)
27 | CN(C)c1nc(N[C@H]2CC[C@@H](NC(=S)NC3CCCCCCCCCCC3)CC2)nc2c1CCCC2 [compound 2026] | 3 (Class 3 The value of percent of control at 10^−7 M was more than 60% or the value of IC50 was more than 200 nM.)
28 | CN(C)c1nc(N[C@H]2CC[C@@H](NC(=S)NCC3CCCCC3)CC2)nc2c1CCCC2 [compound 2027] | 3 (Class 3 The value of percent of control at 10^−7 M was more than 60% or the value of IC50 was more than 200 nM.)
29 | CN(C)c1nc(N[C@H]2CC[C@@H](NC(=S)NC3CC3)CC2)nc2c1CCCC2 [compound 2029] | 3 (Class 3 The value of percent of control at 10^−7 M was more than 60% or the value of IC50 was more than 200 nM.)
30 | CN(C)c1nc(N[C@H]2CC[C@@H](NC(=S)NCC(c3ccccc3)c3ccccc3)CC2)nc2c1CCCC2 [compound 2030] | 2 (Class 2: The value of percent of control at 10^−7 M was from 40% to 60% or the value of IC′50 was from 50 nM to 200 nM.)
31 | CN(C)c1nc(N[C@H]2CC[C@@H](NC(=S)Nc3c(Cl)c(Cl)cc(Cl)c3Cl)CC2)nc2c1CCCC2 [compound 2031, N-(cis-4-{[4-(dimethylamino)-5,6,7,8-tetrahydroquinazolin-2-yl]amino}cyelohexyl)-N′-(2,3,5,6-tetrachlorophenyl)thiourea] | 3 (Class 3 The value of percent of control at 10^−7 M was more than 60% or the value of IC50 was more than 200 nM.)
32 | CN(C)c1nc(N[C@H]2CC[C@@H](NC(=S)NCc3ccc(Cl)cc3Cl)CC2)nc2c1CCCC2 [compound 2032] | 3 (Class 3 The value of percent of control at 10^−7 M was more than 60% or the value of IC50 was more than 200 nM.)
33 | CN(C)c1nc(N[C@H]2CC[C@@H](NC(=S)Nc3cc(Br)ccc3Br)CC2)nc2c1CCCC2 [compound 2033] | 3 (Class 3 The value of percent of control at 10^−7 M was more than 60% or the value of IC50 was more than 200 nM.)
34 | COc1ccc(OC)c(CCNC(=S)N[C@H]2CC[C@@H](Nc3nc4c(c(N(C)C)n3)CCCC4)CC2)c1 [compound 2034] | 3 (Class 3 The value of percent of control at 10^−7 M was more than 60% or the value of IC50 was more than 200 nM.)
35 | CN(C)c1nc(N[C@H]2CC[C@@H](NC(=S)Nc3cc([N+](=O)[O-])ccc3Cl)CC2)nc2c1CCCC2 [compound 2035] | 3 (Class 3 The value of percent of control at 10^−7 M was more than 60% or the value of IC50 was more than 200 nM.)
36 | CN(C)c1nc(N[C@H]2CC[C@@H](NC(=S)Nc3ccccc3C#N)CC2)nc2c1CCCC2 [compound 2036] | 3 (Class 3 The value of percent of control at 10^−7 M was more than 60% or the value of IC50 was more than 200 nM.)
37 | CN(C)c1nc(N[C@H]2CC[C@@H](NC(=S)NCc3ccccc3F)CC2)nc2c1CCCC2 [compound 2037] | 3 (Class 3 The value of percent of control at 10^−7 M was more than 60% or the value of IC50 was more than 200 nM.)
38 | CN(C)c1nc(N[C@H]2CC[C@@H](NC(=S)NC(=O)c3ccco3)CC2)nc2c1CCCC2 [compound 2038] | 3 (Class 3 The value of percent of control at 10^−7 M was more than 60% or the value of IC50 was more than 200 nM.)
39 | COc1ccc([N+](=O)[O-])cc1NC(=S)N[C@H]1CC[C@@H](Nc2nc3c(c(N(C)C)n2)CCCC3)CC1 [compound 2039] | 3 (Class 3 The value of percent of control at 10^−7 M was more than 60% or the value of IC50 was more than 200 nM.)
40 | Cc1ccccc1CNC(=S)N[C@H]1CC[C@@H](Nc2nc3c(c(N(C)C)n2)CCCC3)CC1 [compound 2040] | 3 (Class 3 The value of percent of control at 10^−7 M was more than 60% or the value of IC50 was more than 200 nM.)
41 | COc1ccc(CNC(=S)N[C@H]2CC[C@@H](Nc3nc4c(c(N(C)C)n3)CCCC4)CC2)cc1OC [compound 2041] | 3 (Class 3 The value of percent of control at 10^−7 M was more than 60% or the value of IC50 was more than 200 nM.)

— patent US20050197350A1, “Novel quinoline, tetrahydroquinazoline, and pyrimidine derivatives and methods of treatment related to the use thereof” (TAISHO PHARMACEUTICAL CO., LTD., priority 2003, published 2005)
